Experimental findings from PubChem BioAssay (NCI) are described below.

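Values below derive from 48-hour exposures of cells grown in 96-well plates, with endpoints linearly interpolated between the two concentrations bracketing the appropriate inhibition level. TGI: concentration producing complete growth inhibition.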 Where a SMILES comes first, the peptide text is derived from it. The star is where a group is joined. X36 = O=C(c1ccc(-c2ccc(Cl)cc2Cl)o1)*

Common to all, as to assay: growth of human tumour cells (NCI), 48 h
In assay [1] the test system is A549 NSCLC.
For assay [2], the system named is HOP-62 NSCLC.
Assay [3] relates to K-562 leukemia.
Assay [4] relates to MALME-3M melanoma.
Assay [5] concerns MCF7 breast.
For assay [6], the system named is OVCAR-5 ovarian.
In assay [7] the test system is RXF 393 renal.
For assay [8], the system named is SF-295 CNS.
The test system of assay [9] is SK-MEL-5 melanoma.
Assay [10] concerns UO-31 renal.

Consider `CC1Cn2c(nc3ccccc32)NC1=O` (centres undefined), for which the TGI in [1], in assay [2], in [3], in assay [4], in assay [5] and in assay [6] was greater than 100 µM each time. The TGI in [7], in assay [8], in assay [9] and in [10] was greater than 100 µM throughout.

On to `Cc1ccc2c(=O)cc(-c3cccs3)[nH]c2n1`, for which the TGI in assay [1], in assay [2], in assay [3], in assay [4], in assay [5] and in assay [6] was greater than 100 µM throughout. The TGI is greater than 62.6 µM in assay [7], greater than 69.6 µM in assay [8], greater than 81.9 µM in assay [9] and 35.6 µM in [10].

For the compound `CCC1(C(=O)OC(C)(C)C)OC12C(C)CCCC2C` (centres undefined), the TGI in assay [1] is greater than 100 µM; in assay [2], greater than 100 µM; in assay [3] it was 52.8 µM; in assay [4], greater than 100 µM; in assay [5], 51.4 µM; in assay [6], greater than 100 µM. The TGI in assay [7] was 36.4 µM; in assay [8] it was greater than 100 µM; in assay [9], greater than 100 µM; in assay [10] it was greater than 100 µM.

As to `O=c1[nH]/c(=C/c2ccc(OCc3ccccc3)cn2)c(=O)[nH]/c1=C/c1ccc(O)cc1`, the TGI was greater than 53.5 µM in assay [1]; greater than 100 µM in assay [2]; greater than 100 µM in assay [3]; 8.67 µM in [4]; greater than 100 µM in [5]; greater than 100 µM in assay [6]. For the same compound, the TGI in [7] is 7.38 µM; in [8], greater than 100 µM; in assay [9], 20.8 µM; in [10], 1.4 µM.

Consider `CC1=NN2C(=N)/C(=C/c3ccco3)C(=O)N=C2S1`, for which the TGI in assay [1], in assay [2], in assay [3], in assay [4], in assay [5] and in assay [6] was greater than 100 µM in each case. Moreover, the TGI in assay [7], in [8], in assay [9] and in [10] was greater than 100 µM in each case.

Take `CCC(C)C(NC(=O)CNC(=O)C(Cc1ccccc1)NC(=O)C1CCCN1C(=O)c1ccc(-c2ccc(Cl)cc2Cl)o1)C(=O)OC` (centres undefined) (X36-PFGI-OMe; configuration not given here): the TGI in assay [1], in [2], in assay [3], in [4], in assay [5] and in assay [6] was greater than 100 µM throughout. Besides, the TGI is greater than 100 µM in assay [7], greater than 100 µM in [8], 45.6 µM in assay [9] and greater than 100 µM in [10].

As to `C1CCC2C(C1)CCCC2NC1=NCCO1` (centres undefined), the TGI in assay [1], in assay [2], in assay [3], in assay [4], in assay [5] and in assay [6] was greater than 100 µM throughout. Also, the TGI in [7], in [8], in assay [9] and in assay [10] was greater than 100 µM each time.

For `COC(=O)[C@H](Cc1ccccc1)NC(=O)[C@H](Cc1ccccc1)NC(=O)[C@@H]1CCCN1C(=O)N[C@H]1C2C=CC(C2)C1C(=O)N1CCC[C@H]1C(=O)N[C@@H](C)C(=O)N[C@H](C(=O)OC)C(C)C` (some centres undefined), the TGI in assay [1], in assay [2], in assay [3], in assay [4], in [5] and in assay [6] was greater than 100 µM throughout. Further, the TGI in assay [7], in assay [8], in assay [9] and in assay [10] was greater than 100 µM each time.

As for `N#Cc1nc(-c2cccs2)oc1N`, the TGI in assay [1], in [2], in assay [3], in assay [4], in assay [5] and in [6] was greater than 100 µM in each case. The TGI in [7], in assay [8], in assay [9] and in assay [10] was greater than 100 µM in each case.

In the case of `O=C1CCCCC(=O)OC2(CCCCC2=O)CC1` (centres undefined), the TGI in assay [1], in assay [2], in assay [3], in [4], in assay [5] and in assay [6] was greater than 100 µM each time. The TGI in assay [7], in assay [8], in assay [9] and in [10] was greater than 100 µM in each case.

In the case of `O=c1oc2ccccc2c(Nc2ccc3c(c2)Oc2ccccc2O3)c1[N+](=O)[O-]`, the TGI in assay [1] was greater than 100 µM; in assay [2] it was greater than 100 µM; in assay [3] it was greater than 100 µM; in [4], 53.3 µM; in assay [5], 47.7 µM; in assay [6], greater than 100 µM. In addition, the TGI is 34.6 µM in assay [7], 40.5 µM in [8], 45.3 µM in [9] and greater than 100 µM in [10].

Turning to `CC(=O)O[C@H]1C#C/C=C\C#CC[C@@H]2C(=O)N[C@@H]12`, the TGI is greater than 100 µM in assay [1]; greater than 72.6 µM in assay [2]; greater than 100 µM in assay [3]; greater than 100 µM in assay [4]; greater than 100 µM in assay [5]; greater than 100 µM in [6]. Also, the TGI in [7] is 73.3 µM; in assay [8], greater than 100 µM; in assay [9] it was greater than 100 µM; in assay [10] it was greater than 62.8 µM.

With `CC1=COC(C)(C=C(C#N)C#N)CC1` (centres undefined), the TGI in assay [1], in assay [2], in [3], in assay [4], in assay [5] and in assay [6] was greater than 100 µM in each case. For the same compound, the TGI in assay [7], in assay [8], in [9] and in assay [10] was greater than 100 µM in each case.

Consider `CCOP(=O)(OCC)c1c(C(=O)OC)cc(=O)[nH]c1-c1ccc(C)cc1`, for which the TGI in assay [1] was 31.5 µM; in [2], 41.7 µM; in assay [3] it was greater than 78.4 µM; in assay [4], 19.9 µM; in assay [5] it was greater than 49.7 µM; in [6], 20.5 µM. For the same compound, the TGI in assay [7] came to 27.3 µM; in [8], 40.9 µM; in assay [9], 28.8 µM; in assay [10], 13.8 µM.

As to `CCOC(=O)/C1=C(\C)N(c2ccc(C)cc2)C(=O)c2ccccc2C(=O)c2c(OC(C)=O)ccc(OC(C)=O)c21`, the TGI in assay [1] was greater than 100 µM; in assay [2] it was 87.3 µM; in assay [3], 38.7 µM; in [4], 72.6 µM; in assay [5], 97.7 µM; in assay [6], greater than 100 µM. For the same compound, the TGI in assay [7] is 92.9 µM; in assay [8], 43.2 µM; in [9], greater than 100 µM; in assay [10] it was greater than 100 µM.

On to `NC(=O)NNC(=O)c1nc[nH]c1[N+](=O)[O-]`, for which the TGI in [1], in [2], in [3], in assay [4], in assay [5] and in assay [6] was greater than 100 µM throughout. For the same compound, the TGI in [7], in assay [9] and in [10] was greater than 100 µM throughout.

Turning to `NP(=O)(OCC1=CC(=O)c2ccccc2C1=O)N(CCBr)CCBr` (centres undefined), the TGI in assay [1] was 26.5 µM; in [3], greater than 100 µM; in [4], 4.6 µM; in assay [5], greater than 40.9 µM; in assay [6] it was 45.1 µM; in assay [7], 21.8 µM. The values for the TGI in [8], in [9] and in [10] were 25.2 µM, 3.21 µM and 24.1 µM, respectively.

For `N#C/C(=C\n1ccc(=O)[nH]c1=S)C(N)=O`, the TGI in assay [1], in assay [2], in assay [3], in assay [4], in assay [5] and in assay [6] was greater than 100 µM throughout. Also, the TGI in assay [7], in assay [8], in assay [9] and in assay [10] was greater than 100 µM throughout.

For `Cc1ccc2c(c1)[nH]c1cc(C(F)(F)F)ccc1[p+]2=O` (centres undefined), the TGI in [1] is greater than 100 µM; in assay [2] it was greater than 100 µM; in assay [3] it was 66.4 µM; in [4], greater than 100 µM; in [5], greater than 100 µM; in assay [6], greater than 100 µM. Moreover, the values for the TGI in [7], in [8] and in assay [9] were greater than 100 µM, 81.9 µM and 34 µM, respectively.

With `O=C1NC(N/N=C/C(O)C(O)C(O)CO)=N/C1=C\c1ccco1` (centres undefined), the TGI in [1], in [2], in [3], in [4], in [5] and in assay [6] was greater than 100 µM each time. Moreover, the TGI in assay [7], in assay [8] and in assay [9] was greater than 100 µM throughout.

With `O=C1c2ccccc2-c2nc(-c3cccc([N+](=O)[O-])c3)nnc21`, the TGI was 98.6 µM in assay [1]; greater than 100 µM in assay [3]; 38.4 µM in assay [4]; greater than 100 µM in assay [5]; 50 µM in assay [6]; greater than 100 µM in assay [7]. Moreover, the TGI is greater than 100 µM in assay [8], 7.65 µM in assay [9] and 42.2 µM in [10].

Turning to `O=c1c2c([N+](=O)[O-])cccc2nc2[nH]c3ccccc3n12`, the TGI in assay [1], in assay [2], in assay [3], in [4], in assay [5] and in [6] was greater than 75 µM throughout. Also, the TGI was 30.4 µM in assay [7], greater than 75 µM in [8] and greater than 75 µM in assay [9].

As to `Nn1c(CCCCCCCCc2nnc(COc3ccc(Cl)cc3)n2N)nnc1COc1ccc(Cl)cc1`, the TGI in assay [1], in assay [3], in assay [4], in assay [5], in assay [6] and in assay [7] was greater than 100 µM in each case. Also, the TGI in assay [8], in [9] and in assay [10] was greater than 100 µM throughout.

In the case of `C=CCCC(=O)CC(O)(C(F)(F)F)C(F)(F)F`, the TGI in assay [1], in assay [3], in [4], in assay [5], in assay [6] and in assay [7] was greater than 100 µM in each case. Also, the TGI in assay [8], in assay [9] and in assay [10] was greater than 100 µM each time.

With `Cc1cn(C2CC(n3cc(Cn4cc(Br)c(=O)[nH]c4=O)nn3)C(CO)O2)c(=O)[nH]c1=O` (centres undefined), the TGI in assay [1], in assay [2], in assay [4], in assay [5], in [6] and in assay [7] was greater than 100 µM each time. For the same compound, the TGI in [8], in assay [9] and in [10] was greater than 100 µM each time.

As to `O=C(O)c1ccc(S(=O)(=O)c2ccccc2[N+](=O)[O-])cc1`, the TGI in [1], in assay [2], in assay [3], in [4], in assay [5] and in assay [6] was greater than 10 µM each time. Also, the TGI in assay [7], in assay [8] and in [9] was greater than 10 µM throughout.

With `COC(=O)C1=CC(=O)OC1(OO)c1ccccc1` (centres undefined), the TGI in [1], in [3], in assay [4], in assay [5], in [6] and in [7] was greater than 100 µM throughout. Besides, the TGI in [8], in assay [9] and in assay [10] was greater than 100 µM each time.
